Values quoted from earlier work in patent publication US20060110374A1, “Method to accelerate stem cell recruitment and homing” (priority 2004, published 2006).

Tests used:
EPCs [1] = system: EPCs
[2] = patients, intra-coronary injection followed by 2 weeks of subcutaneous administration
EPCs [3] = system: EPCs; remark: listed apart in the source

Substance	numbers of EPCs (EPCs [1]; mice and rabbits)	neovascularization with bone marrow-derived cells (EPCs [1]; mice, corneal neovascularization model)	coronary collateral flow [2]	time to rise of EPC levels in the bloodstream (EPCs [3]; after administration) [h]	mobilization of EPCs into the peripheral circulation (EPCs [3]; animal models, exogenous administration)
GM-CSF: granulocyte macrophage colony stimulating factor	Increased numbers	enhanced neovascularization	significant increase		
VEGF				≤ 24	promotes rapid mobilization
